ChEMBL document CHEMBL3885881, “DrugMatrix”

Species: Rattus norvegicus
Assay: DrugMatrix - Regimen: Daily Repeat
Format: toxicity, organism-based, Sprague-Dawley
Design: regimen Daily Repeat, gender Male, age 6-8 weeks
Conditions: in vivo, po, route oral GAVAGE, vehicle .5 % CMC; for BASOPHIL / EOSINOPHIL / ERYTHROCYTE COUNT / HEMATOCRIT / HEMOGLOBIN / LEUKOCYTE COUNT / LYMPHOCYTE / MEAN CORPUSCULAR HEMOGLOBIN / MEAN CORPUSCULAR HEMOGLOBIN CONCENTRATION / MEAN CORPUSCULAR VOLUME / MONOCYTE / NEUTROPHIL / PLATELET COUNT: tissue Blood; for ALANINE AMINOTRANSFERASE / ALBUMIN / ALKALINE PHOSPHATASE / ASPARTATE AMINOTRANSFERASE / BLOOD UREA NITROGEN / CHLORIDE / CHOLESTEROL / CREATINE PHOSPHOKINASE / CREATININE / GLUCOSE / PHOSPHORUS / POTASSIUM / SODIUM / TOTAL PROTEIN: tissue Plasma
[1] = 0 mg/kg, 72 h, dose level Control, time 3 day
[2] = 0 mg/kg, 120 h, dose level Control, time 5 day
[3] = 50 mg/kg, 72 h, dose level Low, time 3 day
[4] = 50 mg/kg, 120 h, dose level Low, time 5 day
[5] = 2000 mg/kg, 72 h, dose level High, time 3 day
[6] = 2000 mg/kg, 120 h, dose level High, time 5 day

For `NC1CCN(c2nc3c(cc2F)c(=O)c(C(=O)O)cn3-c2ccc(F)cc2F)C1` (configuration not stated) [TOSUFLOXACIN], the BASOPHIL [1] was 0%, the EOSINOPHIL [1] was 0.4% and the “ERYTHROCYTE COUNT” value [1] was 6.43 x10E6/uL. The HEMATOCRIT [1] was 37.36%, the HEMOGLOBIN [1] was 13.98 G/DL and the “LEUKOCYTE COUNT” value [1] was 13 x10E3/uL. For the same compound, the LYMPHOCYTE [1] was 81.4%, the “MEAN CORPUSCULAR HEMOGLOBIN” value [1] was 21.9 pg and the “MEAN CORPUSCULAR HEMOGLOBIN CONCENTRATION” value [1] was 37.4 G/DL. For the same compound, the “MEAN CORPUSCULAR VOLUME” value [1] was 58.52 fL, the MONOCYTE [1] was 0.4% and the NEUTROPHIL [1] was 18%. The “PLATELET COUNT” value [1] was 1386 x10E3/uL, the “ALANINE AMINOTRANSFERASE” value [1] was 39.33 u/L and the ALBUMIN [1] was 3.57 G/DL. The “ALKALINE PHOSPHATASE” value [1] was 283.83 u/L, the “ASPARTATE AMINOTRANSFERASE” value [1] was 69.5 u/L and the “BLOOD UREA NITROGEN” value [1] was 14.83 mg/dL. For the same compound, the CHLORIDE [1] was 107.33 MEQ/L, the CHOLESTEROL [1] was 75.17 mg/dL and the “CREATINE PHOSPHOKINASE” value [1] was 107.67 u/L. The CREATININE [1] was 0.48 mg/dL, the GLUCOSE [1] was 172.5 mg/dL and the PHOSPHORUS [1] was 10.48 mg/dL. The POTASSIUM [1] was 6.9 MEQ/L, the SODIUM [1] was 152.33 MEQ/L and the “TOTAL PROTEIN” value [1] was 5.9 G/DL. For the same compound, the BASOPHIL [2] was 0%, the EOSINOPHIL [2] was 0.4% and the “ERYTHROCYTE COUNT” value [2] was 6.96 x10E6/uL. For the same compound, the HEMATOCRIT [2] was 41.12%, the HEMOGLOBIN [2] was 15.24 G/DL and the “LEUKOCYTE COUNT” value [2] was 11.06 x10E3/uL. The LYMPHOCYTE [2] was 88.6%, the “MEAN CORPUSCULAR HEMOGLOBIN” value [2] was 21.96 pg and the “MEAN CORPUSCULAR HEMOGLOBIN CONCENTRATION” value [2] was 37.1 G/DL. For the same compound, the “MEAN CORPUSCULAR VOLUME” value [2] was 59.12 fL, the MONOCYTE [2] was 0.2% and the NEUTROPHIL [2] was 10.8%. For the same compound, the “PLATELET COUNT” value [2] was 1155.8 x10E3/uL, the “ALANINE AMINOTRANSFERASE” value [2] was 36.33 u/L and the ALBUMIN [2] was 3.72 G/DL. The “ALKALINE PHOSPHATASE” value [2] was 340.33 u/L, the “ASPARTATE AMINOTRANSFERASE” value [2] was 68.33 u/L and the “BLOOD UREA NITROGEN” value [2] was 15 mg/dL. The CHLORIDE [2] was 108.17 MEQ/L, the CHOLESTEROL [2] was 74.67 mg/dL and the “CREATINE PHOSPHOKINASE” value [2] was 110.67 u/L. The CREATININE [2] was 0.47 mg/dL, the GLUCOSE [2] was 171.33 mg/dL and the PHOSPHORUS [2] was 10.05 mg/dL. For the same compound, the POTASSIUM [2] was 6.7 MEQ/L, the SODIUM [2] was 155.5 MEQ/L and the “TOTAL PROTEIN” value [2] was 6.33 G/DL. For the same compound, the BASOPHIL [3] was 0%, the EOSINOPHIL [3] was 0% and the “ERYTHROCYTE COUNT” value [3] was 6.96 x10E6/uL. The HEMATOCRIT [3] was 39.2%, the HEMOGLOBIN [3] was 14.2 G/DL and the “LEUKOCYTE COUNT” value [3] was 12.93 x10E3/uL. For the same compound, the LYMPHOCYTE [3] was 90%, the “MEAN CORPUSCULAR HEMOGLOBIN” value [3] was 20.4 pg and the “MEAN CORPUSCULAR HEMOGLOBIN CONCENTRATION” value [3] was 36.27 G/DL. For the same compound, the “MEAN CORPUSCULAR VOLUME” value [3] was 56.3 fL, the MONOCYTE [3] was 0% and the NEUTROPHIL [3] was 10%. The “PLATELET COUNT” value [3] was 1074.33 x10E3/uL, the “ALANINE AMINOTRANSFERASE” value [3] was 36.67 u/L and the ALBUMIN [3] was 3.4 G/DL. For the same compound, the “ALKALINE PHOSPHATASE” value [3] was 240 u/L, the “ASPARTATE AMINOTRANSFERASE” value [3] was 66.33 u/L and the “BLOOD UREA NITROGEN” value [3] was 13 mg/dL. The CHLORIDE [3] was 106.33 MEQ/L, the CHOLESTEROL [3] was 63 mg/dL and the “CREATINE PHOSPHOKINASE” value [3] was 121.33 u/L. The CREATININE [3] was 0.53 mg/dL, the GLUCOSE [3] was 176.67 mg/dL and the PHOSPHORUS [3] was 10.7 mg/dL. The POTASSIUM [3] was 6.8 MEQ/L, the SODIUM [3] was 151.33 MEQ/L and the “TOTAL PROTEIN” value [3] was 5.6 G/DL. The BASOPHIL [4] was 0%, the EOSINOPHIL [4] was 0% and the “ERYTHROCYTE COUNT” value [4] was 6.08 x10E6/uL. For the same compound, the HEMATOCRIT [4] was 34.23%, the HEMOGLOBIN [4] was 12.7 G/DL and the “LEUKOCYTE COUNT” value [4] was 19.4 x10E3/uL. For the same compound, the LYMPHOCYTE [4] was 93.33%, the “MEAN CORPUSCULAR HEMOGLOBIN” value [4] was 21 pg and the “MEAN CORPUSCULAR HEMOGLOBIN CONCENTRATION” value [4] was 37.13 G/DL. The “MEAN CORPUSCULAR VOLUME” value [4] was 56.57 fL, the MONOCYTE [4] was 0% and the NEUTROPHIL [4] was 6.67%. The “PLATELET COUNT” value [4] was 1222.33 x10E3/uL, the “ALANINE AMINOTRANSFERASE” value [4] was 34 u/L and the ALBUMIN [4] was 3.43 G/DL. For the same compound, the “ALKALINE PHOSPHATASE” value [4] was 218.33 u/L, the “ASPARTATE AMINOTRANSFERASE” value [4] was 56.33 u/L and the “BLOOD UREA NITROGEN” value [4] was 11 mg/dL. The CHLORIDE [4] was 108 MEQ/L, the CHOLESTEROL [4] was 63.33 mg/dL and the “CREATINE PHOSPHOKINASE” value [4] was 106.33 u/L. It also gave a CREATININE [4] of 0.5 mg/dL, a GLUCOSE [4] of 169.67 mg/dL and a PHOSPHORUS [4] of 10.13 mg/dL. The POTASSIUM [4] was 6.4 MEQ/L, the SODIUM [4] was 152 MEQ/L and the “TOTAL PROTEIN” value [4] was 5.67 G/DL. The BASOPHIL [5] was 0%, the EOSINOPHIL [5] was 0% and the “ERYTHROCYTE COUNT” value [5] was 6.75 x10E6/uL. For the same compound, the HEMATOCRIT [5] was 40.45%, the HEMOGLOBIN [5] was 14.85 G/DL and the “LEUKOCYTE COUNT” value [5] was 13.75 x10E3/uL. The LYMPHOCYTE [5] was 88.5%, the “MEAN CORPUSCULAR HEMOGLOBIN” value [5] was 22.05 pg and the “MEAN CORPUSCULAR HEMOGLOBIN CONCENTRATION” value [5] was 36.65 G/DL. For the same compound, the “MEAN CORPUSCULAR VOLUME” value [5] was 59.95 fL, the MONOCYTE [5] was 0% and the NEUTROPHIL [5] was 11.5%. For the same compound, the “PLATELET COUNT” value [5] was 1313.5 x10E3/uL, the “ALANINE AMINOTRANSFERASE” value [5] was 30.33 u/L and the ALBUMIN [5] was 3.63 G/DL. For the same compound, the “ALKALINE PHOSPHATASE” value [5] was 215 u/L, the “ASPARTATE AMINOTRANSFERASE” value [5] was 58.67 u/L and the “BLOOD UREA NITROGEN” value [5] was 11.33 mg/dL. For the same compound, the CHLORIDE [5] was 106.67 MEQ/L, the CHOLESTEROL [5] was 79 mg/dL and the “CREATINE PHOSPHOKINASE” value [5] was 134.33 u/L. The CREATININE [5] was 0.5 mg/dL, the GLUCOSE [5] was 175 mg/dL and the PHOSPHORUS [5] was 11.67 mg/dL. The POTASSIUM [5] was 7.4 MEQ/L, the SODIUM [5] was 153.33 MEQ/L and the “TOTAL PROTEIN” value [5] was 6.17 G/DL. The BASOPHIL [6] was 0%, the EOSINOPHIL [6] was 0.33% and the “ERYTHROCYTE COUNT” value [6] was 6.63 x10E6/uL. The HEMATOCRIT [6] was 39.83%, the HEMOGLOBIN [6] was 14.4 G/DL and the “LEUKOCYTE COUNT” value [6] was 13.93 x10E3/uL. For the same compound, the LYMPHOCYTE [6] was 93.67%, the “MEAN CORPUSCULAR HEMOGLOBIN” value [6] was 21.83 pg and the “MEAN CORPUSCULAR HEMOGLOBIN CONCENTRATION” value [6] was 36.23 G/DL. For the same compound, the “MEAN CORPUSCULAR VOLUME” value [6] was 60.27 fL, the MONOCYTE [6] was 0% and the NEUTROPHIL [6] was 6%. For the same compound, the “PLATELET COUNT” value [6] was 1193.67 x10E3/uL, the “ALANINE AMINOTRANSFERASE” value [6] was 45.67 u/L and the ALBUMIN [6] was 3.47 G/DL. The “ALKALINE PHOSPHATASE” value [6] was 280 u/L, the “ASPARTATE AMINOTRANSFERASE” value [6] was 64.67 u/L and the “BLOOD UREA NITROGEN” value [6] was 9.67 mg/dL. The CHLORIDE [6] was 108 MEQ/L, the CHOLESTEROL [6] was 65.67 mg/dL and the “CREATINE PHOSPHOKINASE” value [6] was 144.33 u/L. It also gave a CREATININE [6] of 0.5 mg/dL, a GLUCOSE [6] of 162.33 mg/dL and a PHOSPHORUS [6] of 9.47 mg/dL. For the same compound, the POTASSIUM [6] was 6.3 MEQ/L, the SODIUM [6] was 152.67 MEQ/L and the “TOTAL PROTEIN” value [6] was 5.8 G/DL.
